{"source": "patent US20230172984A1", "about": "“CLEARANCE OF SENESCENT CELLS BY ACTIVATION OF iNKT CELLS” (THE REGENTS OF THE UNIVERSITY OF CALIFORNIA, priority 2020, published 2023)", "key": {"[1]": {"test_system": "senescent preadipocytes (C12FDG^Hi) in eWAT of HFD mice", "test": "C12FDG flow cytometry assay (SA-βgal activity) on eWAT SVF of HFD mice", "assay_type": "in vivo, mouse", "method": "MATERIALS AND METHODS. Mouse husbandry. All procedures involving mice were performed according to the IACUC standards following ethics approval by the animal committee at the University of California, San Francisco. Male C57BL6/J on chow or HFD fed mice. HFD mice were fed a high-fat diet (60% kcal from fat) from 6 weeks until 22 weeks of age. All experiments on HFD mice were performed at 22-24 weeks total age (16-18 weeks on HFD). Age-matched male C57BL6/J mice on standard rodent chow diet were used as controls. For the lung injury model, 10-week-old male C57BL/6J mice were used. The animals were divided into three groups: the control group, the injured group, and the α-GalCer treated group. The animals in the control group received vehicle only (i.p.) on day 10. The injured group animals received bleomycin (3 U/kg) via the intratracheal route at the start of the experiment (day 0). The animals in the α-GalCer treated groups received bleomycin (3 U/kg) on day 0, and i.p. injection of α-GalCer (2 μg/mouse) on day 10. The animals in all the groups were sacrificed on day 14, and lungs were harvested for isolation of primary pulmonary Alveolar Type II cells (ATII) on the same day. For the hydroxyproline assay, mice were euthanized 21 days after injury.\nEpidydmal white adipose tissue stromal vascular fraction (eWAT SVF) isolation. eWAT SVF was isolated using standard protocols. Briefly, mice were euthanized, and epididymal fat pads were harvested, washed twice in D-PBS and minced. eWAT pads were digested with 1 U/ml Collagenase-D (Roche) in 1×HBSS containing 1% BSA (Sigma-Aldrich) for 1 hr at 37° C. Digested fat tissue was then strained twice through 100 μm strainers and neutralized with 30 ml of complete culture media (DMEM-F12 1:1, 10% FBS, 1×Penicillin-streptomycin). Samples were spun at 500 g for 5 minutes, shaken to resuspend the SVF pellet and then spun again. The resulting SVF pellet containing blood cells was lysed with ACKS buffer, washed in D-PBS and spun down. Total live SVF cells were counted using trypan blue and then used for various assays.\nC12FDG flow cytometry assay. eWAT SVF cells isolated and counted as described above were adjusted to 3×10^6 cells/ml in complete culture media and incubated with 33 μM C12FDG for 1 hr in a 37° C. water bath. Cells were then spun down at 500 g for 5 minutes, washed with Cell Staining buffer, and stained with anti-CD45-APC (clone 30F-11) and anti-CD31-PE-Cy7 (clone 390) each at a 1:200 dilution on ice for 30 minutes. Cells were then washed in Cell Staining buffer and resuspended in Cell Staining buffer containing 1×7-AAD. Samples were analyzed on an Attune acoustic focusing cytometer. Gates were set as follows: cells (FSC-A/SSC-A), forward scatter singlets (FSC-H/FSC-A), side-scatter singlets (SSC-H/SSC-A), live cells (7-AAD^−), non-immune cells (CD45^−), non-endothelial cells (CD31^−) and analyzed for C12FDG fluorescence. […] Data were analyzed with FlowJo (v. 10). For Lung, 1×10^6 cells from each sample were used to perform the assay. The cells were incubated with 66 μm of C12FDG in sterile DMEM containing DNase for 1 hour at 37° C. Following the incubation, the cells were washed with cell staining buffer, blocked with anti CD16/32 mouse monoclonal antibody (1:1000, prepared by the UCSF monoclonal antibody core), and stained with APC anti-mouse CD45 (1:400), and 7-AAD (1:1000). The gating strategy followed selected 7-AAD^−, CD45^−, and C12FDG^+ cells. […]"}, "iNKT cells in the eWAT": {"test_system": "iNKT cells in the eWAT", "test": "Flow cytometry of iNKT cells in eWAT SVF of HFD mice (CD1d tetramer)", "assay_type": "in vivo, mouse", "conditions": "2 μg i.p., vs obese mice treated with vehicle", "method": "α-GalCer activation of iNKT cells. iNKT cells were activated in vivo using α-GalCer as described in Peralbo et al., 2006. Decreased frequency and proliferative response of invariant Vα24Vβ11 natural killer T (iNKT) cells in healthy elderly. Biogerontology 7, 483-492. Briefly, HFD mice were i.p. injected with 200 μl of a 10 μg/ml α-GalCer solution (2 μg total) made up in 5.6% Sucrose, 5% Tween-20. On day 3 or 4 post-injection, mice were euthanized for various experiments, as indicated.\nFlow cytometry of iNKT cells. eWAT SVF cells were stained with PBS57 (α-GalCer-analog) loaded onto CD1d-PE tetramers prepared by the NIH Tetramer Core and anti-CD3-APC. As a negative control for subtracting background staining in eWAT SVF, samples were also stained with unloaded CD1d-PE tetramer and anti-CD3-APC. Live cells were enumerated with DAPI, and flow cytometry was performed on an Attune acoustic focusing cytometer. Gates were set to identify: cells (FSC-A/SSC-A), forward scatter singlets (FSC-H/FSC-A), side-scatter singlets (SSC-H/SSC-A), live cells (DAPI^−), and the PBS57::CD1d-PE^+/CD3-APC^+ subpopulation. The percent of unloaded CD1d-PE^+/CD3-APC^+ cells were subtracted from the loaded tetramer stained populations to eliminate the percent of background stained cells. For lung, 1×10^6 cells from each sample were used to quantify iNKT cells. […]"}, "[2]": {"conditions": "Lynch 2012, Schipper 2012, Ji 2012; cited from earlier work"}, "[3]": {"conditions": "pre-clinical and clinical studies, Wolf et al., 2018; cited from earlier work"}}}
{"smiles": "CCCCCCCCCCCCCCCCCCCCCCCCCC(=O)N[C@@H](CO[C@H]1O[C@H](CO)[C@H](O)[C@H](O)[C@H]1O)[C@H](O)[C@H](O)CCCCCCCCCCCCCC", "note": "[GalCer, alpha-Galactosylceramide]", "values": [{"measurement": "senescent cells (C12FDG+ SVF cells), Traj18^−/− HFD mice", "setting": "[1]; HFD fed Traj18^−/− mice (lack invariant TCR chain) injected with GalCer", "result": "failed to reduce senescent cells in Traj18^−/− mice"}, {"measurement": "senescent cells (C12FDG+ SVF cells), WT HFD mice", "setting": "[1]; HFD fed WT mice injected with GalCer", "result": "reduction of senescent cells in WT HFD mice"}, {"measurement": "number of C12FDG^Hi preadipocytes in eWAT", "setting": "[1]; HFD mice injected with GalCer (2 μg i.p.) vs vehicle, FIG. 3A", "result": "deplete the number of these C12FDG^Hi cells to levels akin to those seen in lean control mice"}, {"measurement": "iNKT cell numbers in eWAT", "setting": "iNKT cells in the eWAT", "result": "dramatically increase iNKT cell numbers"}, {"measurement": "metabolic phenotypes in the HFD mouse model (literature)", "setting": "[2]", "result": "reverse adverse metabolic phenotypes"}, {"measurement": "tolerability / side effects", "setting": "[3]", "result": "generally been well-tolerated over a wide range of doses with minimal side effects"}]}
